Where two headings read alike, the source gives them in different places. A value given as a limit tells only on which side of the number the result lay.

The text below walks through data of patent US20120059162A1, “FUSED IMIDAZOLE DERIVATIVE HAVING TTK INHIBITORY ACTION” (Oncotherapy Science, Inc., priority 2009, published 2012).

In one assay the target is T1, TTK (Homo sapiens, UniProt P33981).
T1 sequence (P33981 1-857): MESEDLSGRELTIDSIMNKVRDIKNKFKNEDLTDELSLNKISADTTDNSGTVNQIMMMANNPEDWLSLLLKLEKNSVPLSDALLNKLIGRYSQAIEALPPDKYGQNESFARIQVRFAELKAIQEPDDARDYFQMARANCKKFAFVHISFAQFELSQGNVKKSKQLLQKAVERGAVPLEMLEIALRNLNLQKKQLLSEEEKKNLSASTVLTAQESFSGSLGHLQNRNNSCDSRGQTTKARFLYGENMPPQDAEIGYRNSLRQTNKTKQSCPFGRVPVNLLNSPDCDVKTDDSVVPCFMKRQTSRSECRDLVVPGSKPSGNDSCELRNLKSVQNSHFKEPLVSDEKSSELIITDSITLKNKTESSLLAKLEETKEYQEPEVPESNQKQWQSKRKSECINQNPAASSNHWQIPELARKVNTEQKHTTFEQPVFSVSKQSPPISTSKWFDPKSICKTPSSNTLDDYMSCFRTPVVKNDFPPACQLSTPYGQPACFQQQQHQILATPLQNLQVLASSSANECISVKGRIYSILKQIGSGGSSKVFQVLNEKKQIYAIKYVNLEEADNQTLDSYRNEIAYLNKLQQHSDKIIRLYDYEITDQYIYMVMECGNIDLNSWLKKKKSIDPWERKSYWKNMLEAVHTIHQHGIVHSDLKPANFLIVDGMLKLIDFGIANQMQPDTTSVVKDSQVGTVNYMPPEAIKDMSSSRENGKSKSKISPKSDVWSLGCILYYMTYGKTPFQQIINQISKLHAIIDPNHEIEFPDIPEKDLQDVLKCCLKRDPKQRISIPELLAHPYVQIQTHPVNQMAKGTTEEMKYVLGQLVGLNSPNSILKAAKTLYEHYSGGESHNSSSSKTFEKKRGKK
Nature of the assay: TTK assay: screening of TTK kinase activity suppressing action using p38 MAPK peptide. The assay is classed as biochemical. To be noted: read-out: TTK IC50. The protocol: Screening of a compound having a TTK kinase activity suppressing action using p38 MAPK peptide
A test substance 1.0 μL (solvent: 10% (v/v) DMSO), TTK solution 5 μL (composition: 4 μg/ml TTK, 25 mM Tris-HCl, pH7.5, 5 mM β-glycerophosphate, 2 mM DTT, 0.1 mM Na3VO4, 5 mM MgCl2, 0.1% (w/v)BSA) and a substrate solution 5 μL (composition: 60 μM p38 MAPK peptide, 60 μM ATP, 25 mM Tris-HCl, pH7.5, 5 mM β-glycerophosphate, 2 mM DTT, 0.1 mM Na3VO4, 5 mM MgCl2, 0.1% (w/v)BSA) were mixed in the wells of a 384-well microtiter plate (manufactured by Corning Incorporated) made of polypropylene and loaded in a constant temperature and humidity room.
From the resultant mixture, an aliquot of 1.7 μL was taken out and mixed with the reaction terminating solution (60 μl) in the wells of a 384-well microtiter plate (manufactured by Corning Incorporated) made of polypropylene. Thereafter, 40 μL of the mixture was transferred to a 384-well black NeutrAvidin plate (PIERCE), sealed and incubated under room temperature for 30 minutes. […] Similarly, the plate was washed with TTBS (100 μL) three times, 40 μl of a secondary antibody solution (Eu-N1 labeled Anti-mouse IgG (Perkin Elmer, #AD0124)) was added and incubated under room temperature for 30 minutes. After the plate was washed with TTBS (100 μL) five times, 40 μL of an enhance solution (Perkin Elmer) was added and incubated under room temperature for 5 minutes. […] Based on the fluorescence value in the absence of a test substance, the suppression activity of a test substance was measured.

A further assay has as its system A549. Briefly: A549 assay: screening of cancer cell growth inhibiting compound. The format is cell-based. The settings on record: Homo sapiens, A549 cells, read-out: A549 IC50. As to the method: Screening of Cancer Cell Growth Inhibiting Compound
A cell suspension solution (RERF-LC-AI, A549: 1×10^4/ml, MRC5: 3×10^4/ml and 1×10^5/ml) adjusted to an appropriate concentration with D-MEM (hereinafter, referred to as a culture solution and manufactured by Nacalai Tesque Inc.) supplemented with 10% FBS (HyClone) was added to the wells of a 96-well plate (hereinafter, well plate) at a rate of 100 μL/well and incubated in a CO2 incubator at 37° C. for a day. […] Next, cells were added to each well of the well plate prepared and the above compound dilution solution was added at a rate of 100 μL/well to obtain 200 μL/well. Thereafter, the cells were incubated in the CO2 incubator at 37° C. for further three days. To each well of the well plate, 10 μL of a WST-8 kit (Kishida Chemical Co., Ltd.) solution for counting the number of cells was added and a color reaction was performed in the CO2 incubator for 1 to 4 hours. After the absorbance at 450 nm (reference wavelength: 620 nm) was measured by a microplate reader, suppressing action of the test substance was calculated based on the absorbance value in the absence of a test substance.

Usually IC50 stands for the concentration that inhibits the measured activity by half. With `CC(Nc1cc(NCC2CCOCC2)c2ncc(-c3ccc(C(=O)NC4CC4)cc3)n2n1)C(C)(C)C` (centres unmarked) [Example 2-60], the IC50 at TTK (p38 MAPK peptide substrate) is 4.6 nM; with A549 (72 h, three days, WST-8), not above 50 nM.
With `O=C(NC1CC1)c1ccc(-c2cnc3c(NCC4CCOCC4)c(Cl)c(OC4CCCC4)nn23)cc1` [Example 2-216], the figures for the IC50 at TTK and in the assay with A549 (values given as IC50 intervals) were 2.7 nM and 50 to 500 nM, respectively.
In the case of `CC(=O)N1CCC(CNc2nc(-c3ccc(C#N)cc3)cn3c(-c4ccc(C(=O)NC5CC5)cc4)cnc23)CC1` [Example 1-233], the IC50 at TTK (p38 MAPK peptide substrate) was 20.2 nM; with A549 (72 h, three days, WST-8) it was 500 to 1000 nM.
Consider `CC(C)(C)CNc1cc(NC2CCCCC2)nn2c(-c3ccc(C(=O)NC4CC4)cc3)cnc12` [Example 2-135], for which the IC50 was 9.6 nM at TTK (p38 MAPK peptide substrate) and 50 to 500 nM in the assay with A549 (72 h, three days, WST-8).
For `O=C(NC1CC1)c1ccc(-c2cnc3c(NCC4CCOCC4)cc(N4CCCC4CO)nn23)cc1` (centres unmarked) [Example 2-62] the same measures were 8.7 nM and 50 to 500 nM.
Turning to `O=C(NC1CC1)c1ccc(-c2cnc3c(NCC4CCOCC4)cc(C4=CCNCC4)nn23)cc1` [Example 2-211], the IC50 on TTK was 8.3 nM; with A549 (values given as IC50 intervals), 50 to 500 nM.
Turning to `N#CCCNc1nc(-c2ccc(C#N)cc2)cn2c(-c3ccc(C(=O)NC4CC4)cc3)cnc12` [Example 1-213], the IC50 at TTK (p38 MAPK peptide substrate) is 16.1 nM; in the assay on A549 (72 h, three days, WST-8), 50 to 500 nM.
Regarding `N#Cc1ccc(-c2cn3c(-c4ccc(C(=O)NC5CC5)cc4)cnc3c(NCc3nccs3)n2)cc1` [Example 1-220], the IC50 was 19.6 nM at TTK (p38 MAPK peptide substrate) and 50 to 500 nM in the assay with A549 (72 h, three days, WST-8).
With `CC(C)N(C)c1cc(NCC2CCOCC2)c2ncc(-c3ccc(C(=O)NC4CC4)cc3)n2n1` [Example 2-24], the IC50 at TTK (p38 MAPK peptide substrate) is 5.5 nM; with A549 (72 h, three days, WST-8), 50 to 500 nM.
For `O=C(NC1CC1)c1ccc(-c2cnc3c(NCC4CCSCC4)cc(NC4CCCCC4)nn23)cc1` [Example 2-131] the same measures were 5.5 nM and 50 to 500 nM.
For `Nc1c(F)cccc1Oc1cc(NCC2CCOCC2)c2ncc(-c3ccc(C(=O)NC4CC4)cc3)n2n1` [Example 2-98], in that order: 2.4 nM and not above 50 nM.
For `CC(C)CNc1cc(NCC2CCOCC2)c2ncc(-c3ccc(C(=O)NC4CC4)cc3)n2n1` [Example 2-22], in that order: 6.2 nM and 50 to 500 nM.
Take `COc1cc(C#N)ccc1-c1cc(NCC2CCOCC2)c2ncc(-c3ccc(C(=O)NC4CC4)cc3)n2n1` [Example 2-205]: the IC50 at TTK was 4.5 nM; in the assay on A549 (values given as IC50 intervals), not above 50 nM.
As for `COCCOc1cc(NCC2CCOCC2)c2ncc(-c3ccc(C(=O)NC4CC4)cc3)n2n1` [Example 2-175], the IC50 at TTK is 11.4 nM; in the assay on A549 (values given as IC50 intervals), 50 to 500 nM.
Regarding `CCC(C)Nc1cc(NCC2CCOCC2)c2ncc(-c3ccc(C(=O)NC4CC4)cc3)n2n1` (centres unmarked) [Example 2-87, 4-(6-(sec-Butylamino)-8-((tetrahydro-2H-pyran-4-yl)methylamino)imidazo[1,2-b]pyridazin-3-yl)-N-cyclopropylbenzamide], the IC50 on TTK (p38 MAPK peptide substrate) was 6.2 nM; in the assay on A549 (72 h, three days, WST-8) it was 50 to 500 nM.
Regarding `CC(C)(Oc1cc(NCC2CCOCC2)c2ncc(-c3ccc(C(=O)NC4CC4)cc3)n2n1)C(F)(F)F` [Example 2-185], the results for the IC50 at TTK and in the assay with A549 (values given as IC50 intervals) were 2.7 nM and 50 to 500 nM, respectively.
For `O=C(NC1CC1)c1ccc(-c2cnc3c(NCC4CCOCC4)cc(NC4CCCC4)nn23)c(Cl)c1` [Example 2-231] the same measures were 5.7 nM and 50 to 500 nM.
Turning to `O=C(NC1CC1)c1ccc(-c2cnc3c(NCC4CCOCC4)cc(NC(=O)C4CCCCC4)nn23)cc1` [Example 2-36], the IC50 at TTK (p38 MAPK peptide substrate) was 44.2 nM; in the assay with A549 (72 h, three days, WST-8), 1000 to 10000 nM.
For `Nc1cccc(Oc2cc(NCC3CCOCC3)c3ncc(-c4ccc(C(=O)NC5CC5)cc4)n3n2)c1` [Example 2-91], in that order: 2.3 nM and not above 50 nM.
Regarding `O=C(NC1CC1)c1ccc(-c2cnc3c(NCC4CCOCC4)cc(OCC45CC6CC(CC(C6)C4)C5)nn23)cc1` [Example 2-190], the IC50 on TTK is 16.1 nM; with A549 (values given as IC50 intervals), 1000 to 10000 nM.
With `CC(C)C(C)Nc1cc(NCC2CCOCC2)c2ncc(-c3ccc(C(=O)NC4CC4)cc3)n2n1` (centres unmarked) [Example 2-55], the IC50 is 4.9 nM at TTK (p38 MAPK peptide substrate) and 50 to 500 nM in the assay on A549 (72 h, three days, WST-8).
For `O=C(NC1CC1)c1ccc(-c2cnc3c(NCc4cccs4)cc(NC4CCCCC4)nn23)cc1` [Example 2-151] the same measures were 3.1 nM and 50 to 500 nM.
For `O=C(NC1CC1)c1ccc(-c2cnc3c(NCC(F)F)cc(NC4CCCCC4)nn23)cc1` [Example 2-144], in that order: 3.5 nM and 50 to 500 nM.
For `COCCNc1cc(NCC2CCOCC2)c2ncc(-c3ccc(C(=O)NC4CC4)cc3)n2n1` [Example 2-18] the same measures were 18.4 nM and 50 to 500 nM.
For the compound `O=C(NC1CC1)c1ccc(-c2cnc3c(NCC4CCOCC4)cc(NC4CCOCC4)nn23)cc1` [Example 2-13], the IC50 at TTK (p38 MAPK peptide substrate) is 5.9 nM; with A549 (72 h, three days, WST-8) it was 50 to 500 nM.
In the case of `C#CC(CC)(CC)Nc1cc(NCC2CCOCC2)c2ncc(-c3ccc(C(=O)NC4CC4)cc3)n2n1` [Example 2-76], the IC50 on TTK (p38 MAPK peptide substrate) was 18.9 nM; with A549 (72 h, three days, WST-8), 500 to 1000 nM.
As to `O=C(NC1CC1)c1ccc(-c2cnc3c(NCC4CCOCC4)cc(NC4CCCC4)nn23)cc1O` [Example 2-229], the values for the IC50 on TTK and in the assay on A549 (values given as IC50 intervals) were 4.4 nM and 50 to 500 nM, respectively.
Turning to `Cc1ccc(Oc2cc(NCC3CCOCC3)c3ncc(-c4ccc(C(=O)NC5CC5)cc4)n3n2)cc1` [Example 2-103], the IC50 at TTK (p38 MAPK peptide substrate) is 4.4 nM; in the assay on A549 (72 h, three days, WST-8) it was 50 to 500 nM.
For `CC(C)C(Nc1cc(NCC2CCOCC2)c2ncc(-c3ccc(C(=O)NC4CC4)cc3)n2n1)C(F)(F)F` (centres unmarked) [Example 2-78], in that order: 3.5 nM and not above 50 nM.
For `O=C(NC1CC1)c1ccc(-c2cnc3c(NCC4CCOCC4)cc(OC4C5CC6CC(C5)CC4C6)nn23)cc1` (centres unmarked) [Example 2-191], the results for the IC50 at TTK and in the assay on A549 (values given as IC50 intervals) were 3.9 nM and 50 to 500 nM, respectively.
Regarding `O=C(NC1CC1)c1ccc(-c2cnc3c(NCC4CCOCC4)cc(Oc4cccc(F)c4O)nn23)cc1` [Example 2-117], the IC50 on TTK (p38 MAPK peptide substrate) was 2.9 nM; with A549 (72 h, three days, WST-8), not above 50 nM.
For `O=C(NC1CC1)c1ccc(-c2cnc3c(NCc4ccncc4)cc(NC4CCCCC4)nn23)cc1` [Example 2-155] the same measures were 4.1 nM and 50 to 500 nM.
Turning to `O=C(NC1CC1)c1ccc(-c2cnc3c(NCC4CCOCC4)cc(Nc4ccccc4O)nn23)cc1` [Example 2-34], the IC50 at TTK (p38 MAPK peptide substrate) is 3.7 nM; in the assay on A549 (72 h, three days, WST-8) it was 50 to 500 nM.
For `O=C(NC1CC1)c1ccc(-c2cnc3c(NCCCCO)cc(NC4CCCCC4)nn23)cc1` [Example 2-130] the same measures were 9.7 nM and 50 to 500 nM.
